# In patent US12459899B2, “Isoquinolinone derivatives, method for preparing the same, and pharmaceutical composition for preventing or treating poly(ADP-ribose) polymerase-1-related diseases, comprising the same as active ingredient” (DIGMBIO. INC., priority 2019, dated 2025):
# Target: PARP-1 (poly[ADP-ribose] polymerase 1) enzyme (Homo sapiens (Human), UniProt P09874)
# Assay: PARP-1 (poly[ADP-ribose] polymerase 1) enzyme inhibitory ability, Trevigen assay kit
# Format: biochemical
# Settings: 1 nM compound; read-out: PAR P-1 Inhibitory ability at 1 nM
# Protocol: In order to evaluate the PARP-1 (poly[ADP-ribose] polymerase 1) enzyme inhibitory ability of the compounds according to the present invention, an experiment was conducted as follows.
# Specifically, in order to evaluate the PARP-1 (poly[ADP-ribose] polymerase 1) enzyme inhibitory ability of the compounds of Examples 1 to 276 according to the present invention, the PARP-1 (poly[ADP-ribose] polymerase 1) activity was investigated in the following manner using an assay kit purchased from Trevigen, Inc. (Catalog number: 4677-096-K). 50 μL of 1×PARP buffer (provided by Trevigen's kit) was dispensed into a 96-well plate coated with histones per each well, and then rehydrated for 30 minutes. After removing the 1×PARP buffer present in the well, PARP-1 (poly[ADP-ribose] polymerase 1) enzyme (0.5 unit/well) and 1 μM concentration or various concentrations of the compounds of Example 1 to 276 were added at room temperature and reacted for 10 minutes. Thereafter, each well was treated with 25 μL of 1×PARP cocktail (biotinylated NAD, activated DNA, provided by Trevigen's kit), and then reacted at room temperature for 1 hour. After the reaction was completed, each well was washed twice with PBS (7.5 mM Na2HPO4, 2.5 mM NaH2PO4, 145 mM NaCl) containing 0.1% triton X-100, and washed twice with PBS. Then, 50 μL of strep-HRP (streptavidin-linked peroxidase) was added and reacted at room temperature for 1 hour, and then washed twice with PBS containing 0.1% triton X-100, and washed twice with PBS. After removing all PBS, 50 μL of TACS-sapphire, a substrate, was added, and reacted at room temperature for 15 minutes while blocking the light. After the reaction was terminated by treatment with 50 μL of 5% phosphoric acid to each well, the absorbance was measured at 450 nm using a microplate reader Victor3 from PerkinElmer, Inc. to quantify the value.
# Sequence of PARP-1 (poly[ADP-ribose] polymerase 1) enzyme (P09874 whole entry): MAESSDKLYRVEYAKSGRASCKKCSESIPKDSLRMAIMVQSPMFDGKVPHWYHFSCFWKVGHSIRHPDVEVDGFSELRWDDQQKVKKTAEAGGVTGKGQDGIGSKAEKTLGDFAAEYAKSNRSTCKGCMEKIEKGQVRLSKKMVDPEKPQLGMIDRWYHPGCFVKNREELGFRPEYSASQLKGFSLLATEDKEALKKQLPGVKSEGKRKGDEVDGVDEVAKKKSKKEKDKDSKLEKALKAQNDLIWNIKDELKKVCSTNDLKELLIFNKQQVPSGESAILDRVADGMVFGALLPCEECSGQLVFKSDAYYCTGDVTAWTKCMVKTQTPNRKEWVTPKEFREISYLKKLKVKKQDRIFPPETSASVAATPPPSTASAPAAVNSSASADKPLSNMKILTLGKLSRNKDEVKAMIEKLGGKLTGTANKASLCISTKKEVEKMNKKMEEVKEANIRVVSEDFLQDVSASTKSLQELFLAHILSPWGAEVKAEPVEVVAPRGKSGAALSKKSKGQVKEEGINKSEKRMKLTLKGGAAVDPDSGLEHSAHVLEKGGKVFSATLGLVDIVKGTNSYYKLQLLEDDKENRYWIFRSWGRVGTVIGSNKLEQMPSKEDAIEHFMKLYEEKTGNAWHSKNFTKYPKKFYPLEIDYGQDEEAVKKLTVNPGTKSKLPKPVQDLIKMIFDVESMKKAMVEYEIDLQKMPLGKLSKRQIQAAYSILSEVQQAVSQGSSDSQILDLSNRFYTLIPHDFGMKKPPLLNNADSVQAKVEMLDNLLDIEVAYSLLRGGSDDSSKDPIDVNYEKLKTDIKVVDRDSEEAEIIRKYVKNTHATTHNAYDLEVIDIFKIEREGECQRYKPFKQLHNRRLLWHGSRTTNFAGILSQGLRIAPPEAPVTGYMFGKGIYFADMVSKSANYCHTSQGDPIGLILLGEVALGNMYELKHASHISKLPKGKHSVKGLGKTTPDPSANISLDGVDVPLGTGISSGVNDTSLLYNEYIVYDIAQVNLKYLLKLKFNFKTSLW
row,SMILES,inhibition at 0.001 µM [%]
1,"N#Cc1ccc(OC2CC3CCC(C2)N3CCCc2cc3cccc(F)c3c(=O)[nH]2)cc1 (centres unmarked) [Example 273, 4-((8-(3-(8-fluoro-1-oxo-1,2-dihydroisoquinolin-3-yl)propyl)-8-azabicyclo[3.2.1]octan-3-yl)oxy)benzonitrile]",< 50
2,"N#Cc1ccccc1N1CCN(C(=O)CCc2cc3cccc(F)c3c(=O)[nH]2)CC1 [Example 74, 2-(4-(3-(8-fluoro-1-oxo-1,2-dihydroisoquinolin-3-yl)propanoyl)piperazin-1-yl)benzonitrile]",< 50
3,"O=C(CCc1cc2ccc(F)cc2c(=O)[nH]1)N1CCN(c2cccc(F)c2)CC1 [Example 120, 7-fluoro-3-(3-(4-(3-fluorophenyl)piperazin-1-yl)-3-oxopropyl)isoquinolin-1(2H)-one]",< 50
4,"O=C(CCc1cc2cccc(F)c2c(=O)[nH]1)N1CCN(c2cccc(F)c2)CC1 [Example 89, 8-fluoro-3-(3-(4-(3-fluorophenyl)piperazin-1-yl)-3-oxopropyl)isoquinolin-1(2H)-one]",< 50
5,"Cc1cc(F)cc2c(=O)[nH]c(CCC(=O)N3CCN(c4cc(F)ccc4C#N)CC3)cc12 [Example 157, 4-fluoro-2-(4-(3-(7-fluoro-5-methyl-1-oxo-1,2-dihydroisoquinolin-3-yl)propanoyl)piperazin-1-yl)benzonitrile]",< 50
6,"N#Cc1ccc(C2=CCN(CCCc3cc4ncccc4c(=O)[nH]3)CC2)cc1 [Example 239, 4-(1-(3-(5-oxo-5,6-dihydro-1,6-naphthyridin-7-yl)propyl)-1,2,3,6-tetrahydropyridin-4-yl)benzonitrile]",50 to 80
7,"N#Cc1ccc(F)cc1N1CCN(C(=O)CCc2cc3cccc(F)c3c(=O)[nH]2)CC1 [Example 81, 4-fluoro-2-(4-(3-(8-fluoro-1-oxo-1,2-dihydroisoquinolin-3-yl)propanoyl)piperazin-1-yl)benzonitrile]",< 50
8,"Cc1ccc(F)c2c(=O)[nH]c(CCCN3CCN(c4ccc(C#N)cn4)CC3)cc12 [Example 22, 6-(4-(3-(8-fluoro-5-methyl-1-oxo-1,2-dihydroisoquinolin-3-yl)propyl)piperazin-1-yl)nicotinonitrile]",< 50
9,"O=C(CCc1cc2cccc(F)c2c(=O)[nH]1)N1CCN(C(=O)C2CCCC2)CC1 [Example 174, 3-(3-(4-(cyclopentanecarbonyl)piperazin-1-yl)-3-oxopropyl)-8-fluoroisoquinolin-1(2H)-one]",< 50
10,"Cc1ccc(F)c2c(=O)[nH]c(CCCN3CC=C(c4ccc(F)cc4)CC3)cc12 [Example 53, 8-fluoro-3-(3-(4-(4-fluorophenyl)-3,6-dihydropyridin-1(2H)-yl)propyl)-5-methylisoquinolin-1(2H)-one]",< 50
11,"O=C(CCc1cc2cccc(F)c2c(=O)[nH]1)N1CCN(C(=O)C2CCC2)CC1 [Example 178, 3-(3-(4-(cyclobutanecarbonyl)piperazin-1-yl)-3-oxopropyl)-8-fluoroisoquinolin-1(2H)-one]",< 50
12,"Cc1cc(F)cc2c(=O)[nH]c(CCC(=O)N3CCN(c4ccc(Cl)cc4)CC3)cc12 [Example 155, 3-(3-(4-(4-chlorophenyl)piperazin-1-yl)-3-oxopropyl)-7-fluoro-5-methylisoquinolin-1(2H)-one]",< 50
13,"Cc1ccc(F)c2c(=O)[nH]c(CCC(=O)N3CCC(Nc4ccc(C#N)cc4)CC3)cc12 [Example 259, 4-((1-(3-(8-fluoro-5-methyl-1-oxo-1,2-dihydroisoquinolin-3-yl)propanoyl)piperidin-4-yl)amino)benzonitrile]",< 50
14,"O=C(CCc1cc2ccc(F)cc2c(=O)[nH]1)N1CCN(C(=O)C2CCCO2)CC1 (centres unmarked) [Example 192, 7-fluoro-3-(3-oxo-3-(4-(tetrahydrofuran-2-carbonyl)piperazin-1-yl)propyl)isoquinolin-1(2H)-one]",< 50
15,Cc1ccc(F)c2c(=O)[nH]c(CCCN3C4CCC3CN(c3ccc(C#N)cc3)C4)cc12 [Example 197],< 50
16,"N#Cc1ccc(NC2CCN(C(=O)CCc3cc4cccc(F)c4c(=O)[nH]3)CC2)cn1 [Example 258, 5-((1-(3-(8-fluoro-1-oxo-1,2-dihydroisoquinolin-3-yl)propanoyl)piperidin-4-yl)amino)picolinonitrile]",< 50
17,"Cc1ccc(F)c2c(=O)[nH]c(CCC(=O)N3CC=C(c4ccccc4F)CC3)cc12 [Example 138, 8-fluoro-3-(3-(4-(2-fluorophenyl)-3,6-dihydropyridin-1(2H)-yl)-3-oxopropyl)-5-methylisoquinolin-1(2H)-one]",< 50
18,"Cc1ccc(F)c2c(=O)[nH]c(CCC(=O)N3CC=C(c4ccc(C#N)nc4)CC3)cc12 [Example 145, 1′-(3-(8-fluoro-5-methyl-1-oxo-1,2-dihydroisoquinolin-3-yl)propanoyl)-1′,2′,3′,6′-tetrahydro-[3,4′-bipyridine]-6-carbonitrile]",< 50
19,"N#Cc1ccc(N2CCN(C(=O)CCc3cc4ncccc4c(=O)[nH]3)CC2)cc1 [Example 241, 4-(4-(3-(5-oxo-5,6-dihydro-1,6-naphthyridin-7-yl)propanoyl)piperazin-1-yl)benzonitrile]",50 to 80
20,"O=C(CCc1cc2ccc(F)cc2c(=O)[nH]1)N1CCN(C(=O)C2CCCCC2)CC1 [Example 172, 3-(3-(4-(cyclohexanecarbonyl)piperazin-1-yl)-3-oxopropyl)-7-fluoroisoquinolin-1(2H)-one]",< 50
21,"Cc1ccc(F)c2c(=O)[nH]c(CCCN3CCN(c4nccs4)CC3)cc12 [Example 29, 8-fluoro-5-methyl-3-(3-(4-(thiazole-2-yl)piperazin-1-yl)propyl)isoquinolin-1(2H)-one]",< 50
22,"N#Cc1cc(F)cc(N2CCN(C(=O)CCc3cc4ccc(F)cc4c(=O)[nH]3)CC2)c1 [Example 119, 3-fluoro-5-(4-(3-(7-fluoro-1-oxo-1,2-dihydroisoquinolin-3-yl)propanoyl)piperazin-1-yl)benzonitrile]",< 50
23,"Cc1ccc(F)c2c(=O)[nH]c(CCC(=O)N3CC=C(c4cc(C#N)ccc4F)CC3)cc12 [Example 137, 4-fluoro-3-(1-(3-(8-fluoro-5-methyl-1-oxo-1,2-dihydroisoquinolin-3-yl)propanoyl)-1,2,3,6-tetrahydropyridin-4-yl)benzonitrile]",< 50
24,"O=C(CCc1cc2cccc(F)c2c(=O)[nH]1)N1CC=C(c2cccc(F)c2)CC1 [Example 83, 8-fluoro-3-(3-(4-(3-fluorophenyl)-3,6-dihydropyridin-1(2H)-yl)-3-oxopropyl)isoquinolin-1(2H)-one]",< 50
25,O=c1[nH]c(CCCN2C3CCC2CN(c2ccc(F)cc2)C3)cc2ncccc12 [Example 230],< 50
26,"Cc1ccc(F)c2c(=O)[nH]c(CCCN3CC[C@@H](c4ccc(F)cc4)C3)cc12 [Example 32, (S)-8-fluoro-3-(3-(3-(4-fluorophenyl)pyrrolidin-1-yl)propyl)-5-methylisoquinolin-1(2H)-one]",< 50
27,"N#Cc1ccc(N2CCN(C(=O)CCc3cc4cccc(F)c4c(=O)[nH]3)CC2)nc1 [Example 71, 6-(4-(3-(8-fluoro-1-oxo-1,2-dihydroisoquinolin-3-yl)propanoyl)piperazin-1-yl)nicotinonitrile]",< 50

# Same assay, conditions: PARP-1 enzyme activity
row,SMILES,IC50 [nM]
1,"Cc1ccc(F)c2c(=O)[nH]c(CCCN3CCN(c4ccc(C#N)cn4)CC3)cc12 [Example 22, 6-(4-(3-(8-fluoro-5-methyl-1-oxo-1,2-dihydroisoquinolin-3-yl)propyl)piperazin-1-yl)nicotinonitrile]",1.2
2,"N#Cc1ccc(N2CCN(C(=O)CCc3cc4ncccc4c(=O)[nH]3)CC2)cc1 [Example 241, 4-(4-(3-(5-oxo-5,6-dihydro-1,6-naphthyridin-7-yl)propanoyl)piperazin-1-yl)benzonitrile]",4.92
